Data on 25 compounds can be found in ChEMBL document CHEMBL1201862, “PubChem BioAssay data set” (2004).

Structures are written as SMILES. Where “and” joins values, the source holds several entries; their conditions need not be identical. Identical values can stand only once.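 The compound was tested at five concentrations on cells cultured in 96-well plates, with a 48-hour exposure period. Abbreviation: GI50, concentration required for 50% inhibition of growth.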 Calls of active or inactive are those of the source. Rule as the data show it: active = GI50 up to about 1.1 µM and inactive = higher. A value given as a limit tells only on which side of the number the result lay.

What all share (assay): growth of human tumour cells (NCI), 48 h
Test [1] relates to XF498.
The subject of test [2] is DLD-1.
Test [3] relates to DMS-114.
For test [4], the system named is M19-MEL.
The test system of test [5] is SNB-78.
In test [6] the test system is HOP-18.
Test [7] deals with KM-20L2.
Test [8] relates to RXF 631.
Test [9] deals with DMS-273.

In the case of `C/C(=N\OCC(O)CNC(C)C)c1ccc2c(c1)NC(=O)CS2` (configuration not stated), the GI50 in test [1], in test [2], in [3], in test [4], in test [5] and in test [6] was > 100 µM (inactive) in each case. The GI50 in test [7] was > 100 µM (inactive).
Regarding `CCOC(=O)/C(=C/c1ccc(C(F)(F)F)cc1)N(CC)CC`, the GI50 in [1] is 58.1 µM (inactive); in test [8], > 100 µM (inactive); in [2], 54.1 µM (inactive); in test [3], 30.8 µM (inactive); in [5] it was 81.8 µM (inactive); in test [6], 12.5 µM (inactive).
In the case of `O=C1c2ccccc2-c2c3c(cc4ccnc1c24)OCO3` [LIRIODENINE], the GI50 in test [1] was 5.75 µM (inactive) and 4.69 µM (inactive); in test [9], 3.44 µM (inactive) and 5.46 µM (inactive); in [2], 4.49 µM (inactive) and 4.05 µM (inactive); in test [4], 5.86 µM (inactive) and 3.75 µM (inactive); in test [6], 24.9 µM (inactive); in [7] it was 7.14 µM (inactive) and 5.82 µM (inactive).
For the compound `OC1c2ccccc2C2(O)C1C(c1ccccc1)C(c1ccccc1)C2(O)c1ccccc1` (configuration not stated), the GI50 in [9] is 7.48 µM (inactive); in test [3], 13.6 µM (inactive); in test [4], 15.1 µM (inactive); in [6], 14.9 µM (inactive); in test [7], 8.83 µM (inactive).
Consider `COc1cc(C2c3cc4c(cc3[C@@H](Nc3ccc(F)cc3)C3COC(=O)[C@H]23)OCO4)cc(OC)c1O` (some centres not stated), for which the GI50 in [1] was 2.95 µM (inactive); in test [9] it was 0.891 µM (active); in test [2], 3.79 µM (inactive); in test [3] it was 2.64 µM (inactive); in [4], 4.21 µM (inactive); in test [5] it was 8.65 µM (inactive). The results for the GI50 in test [6] and in [7] were 10.6 µM (inactive) and 2.08 µM (inactive), respectively.
With `CCOC(=O)C1N(S(=O)(=O)c2ccc(C)cc2)CCC12C(c1ccc(OC)cc1)NC1CCCCC12` (configuration not stated), the GI50 in [9] is > 100 µM (inactive); in [8], 97.1 µM (inactive); in [2], > 100 µM (inactive); in test [3], > 100 µM (inactive); in test [4], > 100 µM (inactive); in [5], > 100 µM (inactive). For the same compound, the GI50 in [7] is > 100 µM (inactive).
Consider `CCOC(=O)C(Cc1ccc([N+](=O)[O-])cc1)NC(=O)CC1c2ccccc2-c2ccccc21` (configuration not stated), for which the GI50 in test [1] is 20.8 µM (inactive); in [9], 63.5 µM (inactive); in test [2], > 100 µM (inactive); in test [3] it was 37.6 µM (inactive); in [4], 18.9 µM (inactive); in test [5] it was 23.8 µM (inactive). Besides, the GI50 in [6] and in test [7] was > 100 µM (inactive) in each case.
Regarding `Cc1c2c(c(C)c3c1[nH]c1ccccc13)CN(C)CC2`, the GI50 was 16.7 µM (inactive) in test [9]; 22.8 µM (inactive) in test [8]; 34.4 µM (inactive) in test [2]; 15.1 µM (inactive) in test [3]; 16.6 µM (inactive) in test [4]; 21.9 µM (inactive) in test [5]. In addition, the GI50 in test [6] was 6.21 µM (inactive); in [7], 18.8 µM (inactive).
Regarding `O=C(O)CCSC(=O)Nc1cccc(F)c1`, the GI50 is > 100 µM (inactive) in [9]; > 10 µM (inactive) in test [2]; 66.5 µM (inactive) in test [3]; > 100 µM (inactive) in test [5]; > 100 µM (inactive) in [7].
Regarding `COc1cc(CC(C)N)ccc1O` (configuration not stated), the GI50 in test [1], in test [9], in [8], in [2], in test [3] and in test [5] was > 100 µM (inactive) each time. Moreover, the GI50 in test [6] and in test [7] was > 100 µM (inactive) in each case.
Regarding `Cc1ccc(NC(=O)CCc2nnc3s/c(=C\C=C\c4ccccc4)c(=O)n23)cc1`, the GI50 was > 100 µM (inactive) in test [1]; > 100 µM (inactive) in test [9]; > 82.4 µM (inactive) in [8]; > 100 µM (inactive) in test [2]; > 100 µM (inactive) in test [3]; 67.5 µM (inactive) in [4]. The GI50 in test [5] was > 71 µM (inactive); in [6], 90.2 µM (inactive); in [7], > 100 µM (inactive).
Take `Cc1cn(Cc2ccccc2CCO)c(=S)[nH]c1=O`: the GI50 in [1], in test [9], in [8], in test [3], in test [4] and in [6] was > 100 µM (inactive) throughout. Besides, the GI50 in test [7] is > 100 µM (inactive).
Regarding `O=C(Cn1ccnc1[N+](=O)[O-])N(CCO)CCO`, the GI50 is > 58.1 µM (inactive) in test [1]; > 1250 µM (inactive) in test [9]; > 1250 µM (inactive) in [2]; > 1250 µM (inactive) in test [3]; > 1250 µM (inactive) in test [4]; > 1250 µM (inactive) in test [5]. Further, the GI50 in [6] and in test [7] was > 1250 µM (inactive) each time.
On to `Cc1ccc(C(=O)OCC(C)C)cc1/N=N/N(C)C`, for which the GI50 in test [9] is 45.5 µM (inactive); in test [2] it was 45.5 µM (inactive); in [4], 44 µM (inactive); in test [5], 64.9 µM (inactive); in test [7] it was 38.7 µM (inactive).
With `CC1CN(c2ccc(Cl)cc2)CC(C)(C)OC(=O)O1` (configuration not stated), the GI50 in test [1], in test [9], in test [8], in [2], in [3] and in [4] was > 100 µM (inactive) each time. Further, the GI50 in [5] and in test [7] was > 100 µM (inactive) throughout.
`C=CCc1cc(OC)c2c(c1)C(O)CC(c1ccccc1)O2` (configuration not stated): the GI50 in [9], in [8], in test [2], in test [3], in [4] and in [5] was > 100 µM (inactive) in each case. Besides, the figures for the GI50 in [6] and in test [7] were > 100 µM (inactive) and 78.3 µM (inactive), respectively.
`Cc1cc(C)cc(NC(N)=S)c1`: the GI50 in test [1] was 46.5 µM (inactive); in [9], > 100 µM (inactive); in test [8], > 100 µM (inactive); in [2], > 100 µM (inactive); in [3], 45.3 µM (inactive); in test [4] it was > 100 µM (inactive). The GI50 in test [5] and in [7] was > 100 µM (inactive) throughout.
On to `NC(=O)/C=C/c1c[nH]c2nccnc12`, for which the GI50 in test [9] was 3.52 µM (inactive); in [2], 2.13 µM (inactive); in [3], 2.22 µM (inactive); in test [4], 3.27 µM (inactive); in test [6], 0.228 µM (active); in [7], 0.0723 µM (active).
As for `Cc1ccc(/C=N/NS(=O)(=O)c2ccccc2)c(C)c1`, the GI50 in [1], in test [9], in [8], in test [2], in [3] and in test [4] was > 100 µM (inactive) in each case. The GI50 in test [5], in test [6] and in test [7] was > 100 µM (inactive) each time.
For `O=S(=O)(O)c1cc(O)c2c(O)c(/N=N/c3ccc(/C=C/c4ccc(/N=N/c5c(S(=O)(=O)O)cc6cc(S(=O)(=O)O)cc(O)c6c5O)cc4S(=O)(=O)O)c(S(=O)(=O)O)c3)c(S(=O)(=O)O)cc2c1`, the GI50 in test [1] was > 100 µM (inactive); in [9] it was > 100 µM (inactive); in [2] it was > 100 µM (inactive); in test [3], 56.6 µM (inactive); in [4], > 100 µM (inactive); in test [6] it was > 100 µM (inactive). Besides, the GI50 in [7] was > 100 µM (inactive).
For `COC(=O)c1c[nH]cc1CCCCc1c[nH]cc1C(=O)OC`, the GI50 in test [1] is 50 µM (inactive); in test [9] it was > 100 µM (inactive); in test [8], > 100 µM (inactive); in [4], > 100 µM (inactive); in [5], > 100 µM (inactive); in [6], > 100 µM (inactive). Moreover, in [7], the GI50 was > 100 µM (inactive).
In the case of `CC(C)(c1ccccc1)c1ccc(Oc2ccc(C#N)c(C#N)c2)cc1`, the GI50 in test [1] is > 10 µM (inactive); in test [8], > 10 µM (inactive); in test [2], > 10 µM (inactive); in [3] it was 4.98 µM (inactive); in test [4], 79.1 µM (inactive); in test [5], > 10 µM (inactive). Further, the GI50 in test [6] and in [7] was > 10 µM (inactive) in each case.
With `N=c1nc2n(cc1F)[C@@H]1O[C@H](CO)[C@@H](O)[C@@H]1O2`, the GI50 was > 100 µM (inactive) in [1]; 3.63 µM (inactive) in [9]; 1.44 µM (inactive) in test [2]; 62.2 µM (inactive) in test [5]; 13.4 µM (inactive) in test [6]; 2.99 µM (inactive) in test [7].
In the case of `COC(=O)[C@]1(C)CCC[C@]2(C)C3CC4OOC3(C=C4C(C)C)CCC21` (some centres not stated), the GI50 is 18.5 µM (inactive) in test [9]; 12.7 µM (inactive) in test [2]; 13.7 µM (inactive) in test [3]; 16.5 µM (inactive) in test [5]; 17.9 µM (inactive) in [7].
As for `COc1ccc(N2C(=O)C3c4[nH]c5ccccc5c4C4CCCCCCC4C3C2=O)cc1` (configuration not stated), the GI50 in test [1] was 10.4 µM (inactive); in test [9] it was 5.35 µM (inactive); in test [2] it was 11.2 µM (inactive); in [3], 8.71 µM (inactive); in [4], 23.3 µM (inactive); in [5], 27.8 µM (inactive). The GI50 is 1.57 µM (inactive) in test [6] and 28.8 µM (inactive) in [7].
